The target of the assay is human TSP1 (Homo sapiens, UniProt P07996). Nature of the assay: Cell adhesion inhibition assay (HUVEC adhesion to TSP1-coated plate). The note with it: HUVEC adhesion to human platelet thrombospondin-coated plate, 2.5 hours, CellTiter-Glo; read-out: Cell adhesion IC50. Format: cell-based. As for the experimental part: As referred to herein, the TSP1 inhibitory activity refers to the activity to inhibit one or more effects of TSP1, including angiostatic effect. The TSP1 inhibitory activity is measured by a cell adhesion inhibition assay using human TSP1 and vascular endothelial cells as described hereinbelow in the Examples section. In this assay, when the 50% inhibitory concentration (IC5O) of a test substance is 200 nM or less, the test substance is determined to have TSP1 inhibitory activity.
Chain of human TSP1 (P07996 19-1170 limits assumed): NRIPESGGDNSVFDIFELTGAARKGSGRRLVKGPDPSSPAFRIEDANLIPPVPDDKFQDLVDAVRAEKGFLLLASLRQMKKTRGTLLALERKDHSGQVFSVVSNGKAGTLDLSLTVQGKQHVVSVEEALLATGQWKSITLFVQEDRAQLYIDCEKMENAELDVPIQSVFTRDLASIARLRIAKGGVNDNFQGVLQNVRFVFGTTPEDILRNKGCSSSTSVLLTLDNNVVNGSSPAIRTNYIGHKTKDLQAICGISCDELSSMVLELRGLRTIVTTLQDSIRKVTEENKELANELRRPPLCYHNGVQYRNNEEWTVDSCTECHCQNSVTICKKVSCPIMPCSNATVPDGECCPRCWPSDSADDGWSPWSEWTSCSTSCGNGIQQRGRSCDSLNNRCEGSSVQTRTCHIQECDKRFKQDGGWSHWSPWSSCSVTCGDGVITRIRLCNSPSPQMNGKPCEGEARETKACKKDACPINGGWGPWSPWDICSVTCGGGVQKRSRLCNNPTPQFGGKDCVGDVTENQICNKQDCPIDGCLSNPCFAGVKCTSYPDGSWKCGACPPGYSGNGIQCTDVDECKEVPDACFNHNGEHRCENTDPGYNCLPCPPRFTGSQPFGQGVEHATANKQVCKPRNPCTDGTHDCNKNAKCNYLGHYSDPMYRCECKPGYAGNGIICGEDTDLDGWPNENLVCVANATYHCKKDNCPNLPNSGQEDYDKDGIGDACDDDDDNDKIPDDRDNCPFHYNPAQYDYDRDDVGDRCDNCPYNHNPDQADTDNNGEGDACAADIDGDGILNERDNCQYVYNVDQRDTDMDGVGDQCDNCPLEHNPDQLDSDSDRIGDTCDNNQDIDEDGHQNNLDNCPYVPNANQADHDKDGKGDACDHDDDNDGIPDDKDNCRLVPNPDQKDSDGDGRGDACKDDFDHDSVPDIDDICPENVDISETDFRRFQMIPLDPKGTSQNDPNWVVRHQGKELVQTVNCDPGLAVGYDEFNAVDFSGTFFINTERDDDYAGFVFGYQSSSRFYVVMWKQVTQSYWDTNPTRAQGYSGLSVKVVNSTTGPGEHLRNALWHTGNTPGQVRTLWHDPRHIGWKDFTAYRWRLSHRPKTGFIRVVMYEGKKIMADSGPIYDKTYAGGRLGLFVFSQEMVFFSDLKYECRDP
(Test Example 1) Cell Adhesion Inhibition Assay
I. Materials and Reagents
96 well Non-treated White with clear bottom (Coster, 3632)
BrightMax adhesive sealing films (EXCEL Scientific, WT50)
Proteosave®SS 15 mL (Sumitomo Bakelite, MS-52150)
Thrombospondin human platelet (Calbiochem, 605225)
EGM-2 MV (Lonza, CC-3202): for HUVEC passaging
Collagen coated dish (IWAKI, 4020-010): for HUVEC passaging
Lipidure®-BL802 (NOF Corporation), 5% solution
Albumin solution (35%) fraction V from Bovine (Sigma, A7979)
CellTiter-Glo (Promega, G7572)
Thrombospondin 1 vial (25 μg) was dissolved in TBS (+2 mM CaCl2; the same shall apply hereunder) to make a 200 μg/mL solution, which was diluted with TBS to a concentration of 10 μg/mL in Proteosave® 15 mL tube. The 10 μg/mL solution was dispensed into a 96 well plate at a volume of 50 μL/well (no reservoir was used since the protein easily adsorbs on it), and the plate was left to stand at 4° C. overnight.
Lipidure® was diluted 10-fold with TBS to make a 0.5% solution. After a buffer was discarded from the plate that had been coated at the step of <Plate coat> as described above, the 0.5% solution was dispensed into all wells to be used at a volume of 100 μL/well, and the plate was left to stand at room temperature for 1 hour.
A 0.2 μM solution of each sample was prepared using a dilution buffer (DMEM+0.5% BSA). 2 μL of the 0.2 μM solution was diluted with 500 μL, of dilution buffer to prepare a diluted sample. As a vehicle control, DMSO was diluted in the same way as the samples.
A blocking solution was discarded from the plate that had been treated at the step of <Plate blocking> as described above, and the plate was washed three times with 150 μL/well of TBS. The washing solution used for the third washing was completely sucked out by an aspirator, and the diluted sample was dispensed into the plate at a volume of 50 μL/well. Then, the plate was left to stand at room temperature for 15 to 30 minutes.
To maintain HUVECs, EGM2-MV and a collagen coated dish were used (the cells were ceased to be used after 10th or 1 lth passage since the cell proliferation rate declined at this stage). The cells were dispersed with 0.05% Trypsin/EDTA, harvested in DMEM/0.5% BSA, and centrifuged at 1000 rpm for 3 minutes. After removal of supernatant, the cells were washed once with a DMEM buffer. The cells were resuspended in a DMEM buffer, counted for cell number, and diluted to 10000 cells/50 μL. The cell suspension was dispensed at a volume of 50 μL/well into the plate into which the sample had been dispensed, mixed gently, and incubated at 37° C. for 2.5 hours.
After cell adhesion was confirmed, the culture medium was completely removed by an aspirator, and 100 μL/well of DMEM/0.5% BSA was gently dispensed. Then, DMEM/0.5% BSA was completely removed by an aspirator, and 50 μL/well of DMEM/0.5% BSA was dispensed. After a white seal was applied to the bottom of the plate, 50 μL/well of CellTiter-Glo® was dispensed, and the solution was stirred for 2 minutes and left to stand at room temperature for 8 minutes. […] was detected using EnVision Xcite Multilabel Reader (produced by Perkin Elmer).
On the basis of the measured fluorescence values, the IC50 values (nM) of the different macrocyclic polypeptides for inhibition of cell adhesion were calculated.
(In general: ATP-based viability assays read luminescence as a measure of living cells.)

The values that follow come from patent US11149066B2, “Thrombospondin 1-binding peptide” (DAIICHI SANKYO COMPANY, LIMITED, priority 2016, dated 2021).

SMILES strings stand for the structures. Positions of bridges follow the written chain, without caps; N, C: chain ends. Non-standard residues stand in square brackets, D forms with d. Residues, ends and D or L forms follow the SMILES beside them. Trp(6-Cl) = N[C@@H](Cc1c[nH]c2cc(Cl)ccc12)C(=O)O; Phe(3,4-Cl2) = N[C@@H](Cc1ccc(Cl)c(Cl)c1)C(=O)O; 2Nal = N[C@@H](Cc1ccc2ccccc2c1)C(=O)O

What is called IC50 is the concentration that gives 50% inhibition.

Regarding `CC[C@H](C)[C@@H]1NC(=O)[C@H](Cc2ccccc2)NC(=O)CSC[C@@H](C(N)=O)NC(=O)[C@H](C(C)C)NC(=O)[C@H](Cc2c[nH]c3ccccc23)NC(=O)[C@H](C(C)C)NC(=O)[C@H](C(C)C)NC(=O)[C@H](Cc2c[nH]c3ccccc23)NC(=O)[C@H](CC(N)=O)NC(=O)[C@H](CCCNC(=N)N)NC(=O)CNC(=O)[C@H](CO)NC1=O` [Compound 1] ({CH2CO}-FISGRNWVVWVC-NH2; thioether N-12), the IC50 came to 34 nM.

With `CC[C@H](C)[C@@H]1NC(=O)[C@H](Cc2ccccc2)NC(=O)CSC[C@@H](C(N)=O)NC(=O)[C@H](CCCNC(=N)N)NC(=O)[C@H](Cc2c[nH]c3ccccc23)NC(=O)[C@H](CCCNC(=N)N)NC(=O)[C@H](C(C)C)NC(=O)[C@H](Cc2c[nH]c3ccccc23)NC(=O)[C@H](CC(N)=O)NC(=O)[C@H](CCCNC(=N)N)NC(=O)CNC(=O)[C@H](CO)NC1=O` [Compound 5], the IC50 turned out to be 33.4 nM.

Turning to `CC(C)[C@@H]1NC(=O)[C@H](Cc2c[nH]c3ccccc23)NC(=O)[C@H](CCCNC(=N)N)NC(=O)[C@H](C(C)C)NC(=O)[C@H](Cc2c[nH]c3ccccc23)NC(=O)[C@H](CC(N)=O)NC(=O)[C@H](CCCNC(=N)N)NC(=O)CNC(=O)[C@H](CO)NC(=O)[C@H](CCCNC(=N)N)NC(=O)[C@H](Cc2ccccc2)NC(=O)CSC[C@@H](C(N)=O)NC1=O` [Compound 8] ({CH2CO}-FRSGRNWVRWVC-NH2; thioether N-12), the IC50 was 33.4 nM.

Regarding `CC[C@H](C)[C@@H]1NC(=O)[C@H](Cc2c[nH]c3ccccc23)NC(=O)CSC[C@@H](C(N)=O)NC(=O)[C@H](C(C)C)NC(=O)[C@H](Cc2c[nH]c3ccccc23)NC(=O)[C@H](CCCCN)NC(=O)[C@H](C(C)C)NC(=O)[C@H](Cc2c[nH]c3ccccc23)NC(=O)[C@H](CC(N)=O)NC(=O)[C@H](CCCNC(=N)N)NC(=O)CNC(=O)[C@H](CO)NC1=O` [Compound 9] ({CH2CO}-WISGRNWVKWVC-NH2; thioether N-12), the IC50 was 27.3 nM.

Regarding `CC[C@H](C)[C@@H]1NC(=O)[C@H](Cc2c[nH]c3ccccc23)NC(=O)CSC[C@@H](C(N)=O)NC(=O)[C@H](C(C)C)NC(=O)[C@H](Cc2c[nH]c3ccccc23)NC(=O)[C@H](CCCNC(=N)N)NC(=O)[C@H](C(C)C)NC(=O)[C@H](Cc2c[nH]c3ccccc23)NC(=O)[C@H](CC(N)=O)NC(=O)[C@H](CCCNC(=N)N)NC(=O)CNC(=O)[C@H](CO)NC1=O` [Compound 11] ({CH2CO}-WISGRNWVRWVC-NH2; thioether N-12), the IC50 came out at 26 nM.

Turning to `CC[C@H](C)[C@@H]1NC(=O)[C@H](Cc2c[nH]c3ccccc23)NC(=O)CSC[C@@H](C(N)=O)NC(=O)[C@H](C(C)C)NC(=O)[C@H](Cc2c[nH]c3ccccc23)NC(=O)[C@H](CCCCN)NC(=O)[C@H](C(C)C)NC(=O)[C@H](Cc2c[nH]c3ccccc23)NC(=O)[C@H](CC(N)=O)NC(=O)[C@H](CCCCN)NC(=O)CNC(=O)[C@H](CO)NC1=O` [Compound 16] ({CH2CO}-WISGKNWVKWVC-NH2; thioether N-12), the IC50 worked out at 21 nM.

Turning to `CC[C@H](C)[C@@H]1NC(=O)[C@H](Cc2ccccc2)NC(=O)CSC[C@@H](C(N)=O)NC(=O)[C@H](C(C)C)NC(=O)[C@H](Cc2c[nH]c3ccccc23)NC(=O)[C@H](CCCCN)NC(=O)[C@H](C(C)C)NC(=O)[C@H](Cc2c[nH]c3ccccc23)NC(=O)[C@H]([C@@H](C)O)NC(=O)[C@H](CCCCN)NC(=O)CNC(=O)[C@H](CO)NC1=O` [Compound 18] ({CH2CO}-FISGKTWVKWVC-NH2; thioether N-12), the IC50 came out at 13 nM.

Turning to `CC[C@H](C)[C@@H]1NC(=O)[C@H](Cc2ccccc2)NC(=O)CSC[C@@H](C(N)=O)NC(=O)[C@H](C(C)C)NC(=O)[C@H](Cc2c[nH]c3ccccc23)NC(=O)[C@H](CCCCN)NC(=O)[C@H](CCSC)NC(=O)[C@H](Cc2c[nH]c3ccccc23)NC(=O)[C@H](CC(N)=O)NC(=O)[C@H](CCCCN)NC(=O)CNC(=O)[C@H](CO)NC1=O` [Compound 19] ({CH2CO}-FISGKNWMKWVC-NH2; thioether N-12), the IC50 was determined as 14 nM.

As for `CC[C@H](C)[C@@H]1NC(=O)[C@H](Cc2c[nH]c3ccccc23)NC(=O)CSC[C@@H](C(N)=O)NC(=O)[C@H](C(C)C)NC(=O)[C@H](Cc2c[nH]c3ccccc23)NC(=O)[C@H](CCCCN)NC(=O)[C@H](C(C)C)NC(=O)[C@H](Cc2c[nH]c3ccccc23)NC(=O)[C@H]([C@@H](C)O)NC(=O)[C@H](CCCCN)NC(=O)CNC(=O)[C@H](CO)NC1=O` [Compound 20] ({CH2CO}-WISGKTWVKWVC-NH2; thioether N-12), the IC50 came to 13 nM.

Take `CC[C@H](C)[C@@H]1NC(=O)[C@H](Cc2c[nH]c3ccccc23)NC(=O)CSC[C@@H](C(N)=O)NC(=O)[C@H](C(C)C)NC(=O)[C@H](Cc2c[nH]c3ccccc23)NC(=O)[C@H](CCCCN)NC(=O)[C@H](C(C)C)NC(=O)[C@H](Cc2c[nH]c3ccccc23)NC(=O)[C@H]([C@@H](C)O)NC(=O)[C@H](CCCNC(=N)N)NC(=O)CNC(=O)[C@H](CO)NC1=O` [Compound 23] ({CH2CO}-WISGRTWVKWVC-NH2; thioether N-12): the IC50 is 15.6 nM.

Take `CC[C@H](C)[C@@H]1NC(=O)[C@H](Cc2ccc3ccccc3c2)NC(=O)CSC[C@@H](C(N)=O)NC(=O)[C@H](C(C)C)NC(=O)[C@H](Cc2c[nH]c3ccccc23)NC(=O)[C@H](CCCCN)NC(=O)[C@H](C(C)C)NC(=O)[C@H](Cc2c[nH]c3ccccc23)NC(=O)[C@H](CC(N)=O)NC(=O)[C@H](CCCNC(=N)N)NC(=O)CNC(=O)[C@H](C)NC1=O` [Compound 30] ({CH2CO}-[2Nal]IAGRNWVKWVC-NH2; thioether N-12): the IC50 came to 16.7 nM.

Take `CC(C)[C@@H]1NC(=O)[C@H](Cc2c[nH]c3ccccc23)NC(=O)[C@H](CCCCN)NC(=O)[C@H](C(C)C)NC(=O)[C@H](Cc2c[nH]c3ccccc23)NC(=O)[C@H](CC(N)=O)NC(=O)[C@H](CCCNC(=N)N)NC(=O)CNC(=O)[C@H](CO)NC(=O)[C@H](Cc2c[nH]c3ccccc23)NC(=O)[C@H](Cc2ccc3ccccc3c2)NC(=O)CSC[C@@H](C(N)=O)NC1=O` [Compound 33] ({CH2CO}-[2Nal]WSGRNWVKWVC-NH2; thioether N-12): the IC50 came out at 20.7 nM.

Turning to `CC(C)[C@@H]1NC(=O)[C@H](Cc2c[nH]c3ccccc23)NC(=O)[C@H](CCCCN)NC(=O)[C@H](C(C)C)NC(=O)[C@H](Cc2c[nH]c3ccccc23)NC(=O)[C@H](CC(N)=O)NC(=O)[C@H](CCCNC(=N)N)NC(=O)CNC(=O)[C@H](CO)NC(=O)[C@H](Cc2ccc3ccccc3c2)NC(=O)[C@H](Cc2ccc(Cl)c(Cl)c2)NC(=O)CSC[C@@H](C(N)=O)NC1=O` [Compound 34] ({CH2CO}-[Phe(3,4-Cl2)][2Nal]SGRNWVKWVC-NH2; thioether N-12), the IC50 was determined as 28.1 nM.

Consider `CC[C@H](C)[C@@H]1NC(=O)[C@H](Cc2ccc3ccccc3c2)NC(=O)CSC[C@@H](C(N)=O)NC(=O)[C@H](C(C)C)NC(=O)[C@H](Cc2c[nH]c3ccccc23)NC(=O)[C@H](CCCCN)NC(=O)[C@H](C(C)C)NC(=O)[C@H](Cc2c[nH]c3cc(Cl)ccc23)NC(=O)[C@H](CC(N)=O)NC(=O)[C@H](CCCNC(=N)N)NC(=O)CNC(=O)[C@H](CO)NC1=O` [Compound 35] ({CH2CO}-[2Nal]ISGRN[Trp(6-Cl)]VKWVC-NH2; thioether N-12), for which the concentration for half-maximal inhibition (IC50) was found to be 26 nM.

Regarding `CC[C@H](C)[C@@H]1NC(=O)[C@H](Cc2ccc3ccccc3c2)NC(=O)CSC[C@@H](C(N)=O)NC(=O)[C@H](C(C)C)NC(=O)[C@H](Cc2c[nH]c3cc(Cl)ccc23)NC(=O)[C@H](CCCCN)NC(=O)[C@H](C(C)C)NC(=O)[C@H](Cc2c[nH]c3ccccc23)NC(=O)[C@H](CC(N)=O)NC(=O)[C@H](CCCNC(=N)N)NC(=O)CNC(=O)[C@H](CO)NC1=O` [Compound 36] ({CH2CO}-[2Nal]ISGRNWVK[Trp(6-Cl)]VC-NH2; thioether N-12), the IC50 is 17.2 nM.
